For two compounds, IC50 results are on record in patent US11111249B2, “Heteroaryl-pyrazole derivative, and preparation method therefor and medical application thereof” (Jiangsu Hengrui Medicine Co., Ltd., priority 2017, dated 2021).

One test addresses T1, CYP2D6 (Homo sapiens, UniProt P10635).
T1 construct: Human liver microsomes (Corning Gentest); tissue Corning Gentest; host or cells: human liver microsomes
In words: Inhibition of human liver microsome CYP2D6 (dextromethorphan substrate). The note with it: human liver microsomes, 30 minutes, read-out: IC50 for the metabolic site on CYP2D6. The class given is in vitro ADME. On the procedure: The enzymatic activity of the compound of the present application against human liver microsome CYP2D6 was determined by the following experimental method:
CYP probe substrate (20 μM Dextromethorphan, SIGMA Q0750) and positive control inhibitor (Quinidine, SIGMA D9684).
100 mM PBS buffer was configured, and 2.5 mg/mL microsome solution and 5 mM NADPH solution were prepared with this buffer, and the 5× concentration compound working solution was diluted with PBS (150, 50, 15, 5, 1.5, 0.15, 0.015, 0 μM). The 5× concentration of Quinidine working solution (150, 50, 15, 5, 1.5, 0.15, 0.015, 0 μM) was diluted with PBS. Dextromethorphan working solution was diluted to a concentration of 20 μM with PBS.
20 μL each of 2.5 mg/mL microsome solution, 20 μM Dextromethorphan working solution, MgCl2 solution and compound working solution (150, 50, 15, 5, 1.5, 0.15, 0.015, 0 μM, each concentration was setted differently reaction system) were taken and mixed evenly. The compound was replaced with the same concentration of Quinidine at the positive control group. At the same time, 5 mM NADPH solution was pre-incubated for 5 minutes at 37° C. After 5 minutes, 20 μL NADPH were added into the wells, and the reaction was started and incubated for 30 minutes. All samples were incubated for two samples. […]
On the technique in general: Microsomes from liver hold many membrane-bound enzymes, among them those of drug oxidation.

The target in another test is T2, hERG potassium channels (Homo sapiens, UniProt Q12809).
T2 construct: expressed in transfected cells
The test can be described thus: Blocking effect on hERG potassium current, automatic patch-clamp, HEK293-hERG stable cell line. The format is cell-based. On the procedure: The blocking effect of the compound of the present application on hERG potassium current was tested using an automatic patch-clamp on a stable cell line transfected with hERG potassium channels.
The HEK293-hERG stable cell line was subcultured at a density of 1:4 in MEM/EBSS medium (10% FBS, 400 μg/mL G418, 1% MEM non-essential amino acid solution (100×), 1% sodium pyruvate solution) and cultured within 48-72 hours for automatic patch-clamp experiments. On the day of the experiment, the cells were digested with 0.25% trypsin, collected by centrifugation and resuspended with extracellular fluid (140 mM NaCl, 4 mM KCl, 1 mM MgCl2, 2 mM CaCl2, 5 mM MD glucose monohydrate, 10 mM Hepes, pH 7.4, 298 mOsmol) to give a cell suspension. […] The currents at each concentration of the compound and the blank control current were analyzed by HEAK Patchmaster, HEAK EPC 10 patch clamp amplifiers (Nanion) and Pathlinersoftware and data analysis software provided by Pathcontrol HTsoftware.
Blocking effect of the compound of the present application on hERG potassium current was determined by the above experimental method, and the IC50 values were as shown in Table 5.

T1 sequence (P10635 whole entry): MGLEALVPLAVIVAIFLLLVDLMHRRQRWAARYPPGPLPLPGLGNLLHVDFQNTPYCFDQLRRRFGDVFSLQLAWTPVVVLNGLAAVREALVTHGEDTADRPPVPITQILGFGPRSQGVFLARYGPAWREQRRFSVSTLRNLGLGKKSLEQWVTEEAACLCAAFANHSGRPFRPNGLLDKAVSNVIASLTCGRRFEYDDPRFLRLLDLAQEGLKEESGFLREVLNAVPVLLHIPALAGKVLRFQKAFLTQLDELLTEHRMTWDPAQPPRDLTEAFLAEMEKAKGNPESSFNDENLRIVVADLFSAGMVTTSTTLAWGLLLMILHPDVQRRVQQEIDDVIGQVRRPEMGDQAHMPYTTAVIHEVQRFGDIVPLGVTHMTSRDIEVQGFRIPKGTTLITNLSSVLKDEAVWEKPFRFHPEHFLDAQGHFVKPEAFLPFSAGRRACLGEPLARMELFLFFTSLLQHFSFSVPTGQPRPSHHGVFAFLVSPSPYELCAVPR
T2 sequence (Q12809 whole entry): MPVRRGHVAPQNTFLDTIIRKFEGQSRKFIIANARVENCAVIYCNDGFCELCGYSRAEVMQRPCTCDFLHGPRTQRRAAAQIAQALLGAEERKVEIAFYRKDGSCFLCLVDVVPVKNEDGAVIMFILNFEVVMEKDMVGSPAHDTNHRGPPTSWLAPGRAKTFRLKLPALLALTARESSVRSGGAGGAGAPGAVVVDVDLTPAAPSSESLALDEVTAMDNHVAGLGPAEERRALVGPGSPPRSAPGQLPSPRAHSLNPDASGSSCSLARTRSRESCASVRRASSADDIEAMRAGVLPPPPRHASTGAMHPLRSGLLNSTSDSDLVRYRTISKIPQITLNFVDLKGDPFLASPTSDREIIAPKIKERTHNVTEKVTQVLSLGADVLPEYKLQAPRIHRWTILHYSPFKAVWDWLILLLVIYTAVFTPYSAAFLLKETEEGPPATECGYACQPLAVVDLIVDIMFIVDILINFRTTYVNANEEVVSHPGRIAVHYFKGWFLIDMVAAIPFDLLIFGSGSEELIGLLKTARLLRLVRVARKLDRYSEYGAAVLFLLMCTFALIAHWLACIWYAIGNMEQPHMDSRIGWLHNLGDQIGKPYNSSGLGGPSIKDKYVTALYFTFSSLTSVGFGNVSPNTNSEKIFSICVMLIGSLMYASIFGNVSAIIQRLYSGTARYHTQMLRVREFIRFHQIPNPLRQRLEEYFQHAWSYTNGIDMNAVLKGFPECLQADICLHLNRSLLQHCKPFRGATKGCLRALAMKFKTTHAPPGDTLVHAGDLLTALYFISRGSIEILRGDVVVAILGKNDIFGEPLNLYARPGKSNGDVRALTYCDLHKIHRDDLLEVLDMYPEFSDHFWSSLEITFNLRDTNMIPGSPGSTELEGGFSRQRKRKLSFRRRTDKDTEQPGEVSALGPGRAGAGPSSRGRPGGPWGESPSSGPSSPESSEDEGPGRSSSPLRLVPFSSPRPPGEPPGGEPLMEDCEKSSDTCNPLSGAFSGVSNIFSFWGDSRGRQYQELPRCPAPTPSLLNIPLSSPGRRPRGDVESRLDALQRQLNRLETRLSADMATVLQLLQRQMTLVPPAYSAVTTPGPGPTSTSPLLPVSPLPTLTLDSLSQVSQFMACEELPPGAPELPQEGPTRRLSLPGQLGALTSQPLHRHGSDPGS

Regarding `CCCCOc1nc(N)c2[nH]cc(Cc3ccc(CN4CCCC4)cc3)c2n1` [Embodiment 21 of WO2016023511], the IC50 (usually the concentration needed to halve the response being measured) was 5.3 µM on CYP2D6 and 3.6 µM at hERG potassium channels.
In the case of `CCCCOc1nc(N)c2[nH]nc(Cc3ccc(CN4CCCC4)cc3)c2n1` [Embodiment 1, 5-Butoxy-3-(4-(pyrrolidin-1-ylmethyl)benzyl)-1H-pyrazolo[4,3-d]pyrimidin-7-amine], the IC50 at CYP2D6 and against hERG potassium channels was above 30 µM in each case.
